The values that follow come from US5817685A, “Anticonvulsive imidazoline-2,4-diones and process for making” (Arzneimittelwerk Dresden GmbH, priority 1996, dated 1998).

The test system of one series is clonic seizures. Conditions: dose of pentetrazol that produces solely clonic seizures; cited from earlier work.
Series [1] in a line: octanol-H2O partition coefficient. The format is physicochemical. Conditions: octanol-water, read-out: Log p (octanol-H2O) partition coeff.
Series [2] has as its system electrically induced seizures (maximum electroshock). As to the kind of experiment: maximum electroshock (MES) test in mice. It counts as in vivo, mouse. Conditions: ip. On the procedure:
(§1) They were tested for their anticonvulsive action in vivo after i.p. administration using the international customary mouse animal models described in Pharmac Weekblad, Sc. Ed.
Seizures can also be induced electrically for the identification of anticonvulsant activity. This test is referred to as the MES test for identifying CNS active drugs. A […] (60 Hz) electrical current for 0.2 s is delivered by a corneal electrode to mice. The current is four to five times as large as the threshold current needed to produce the tonic seizure. These specific parameters are used to identify compounds that prevent seizure spread, therapeutic agents for generalized tonic clonic seizures. Therapeutic agents for absence of seizures are undetected. However, when the current is lowered to […], compounds which modify both seizure spread and seizure threshold are identified.
^1 MES = maximum electroshock

Series [3] has as its system pentetrazol-induced seizures. As to the kind of experiment: s.c. pentetrazol (PTZ) test in mice. The format is in vivo. Conditions: mouse. The method, then: as §1
The most commonly used chemoconvulsant is pentetrazol which can be used as a primary screen for anticonvulsant activity when dosages that produce hindlimb tonic extension are administered. A dose of pentetrazol that produces solely clonic seizures cannot be used as primary screen for new compounds, as phenytoin and carbamazepine have no effect on the blocking of clonic seizures. This test using pentetrazol to induce seizures, used as a primary screen of anticonvulsant activity is referred to in the results below as PEZ.
^2 PTZ = S. C. pentetrazol

The subject of series [4] is seizures (maximum electroshock model, pentetrazol test). As to the kind of experiment: anticonvulsive action in mouse animal models (maximum electroshock and pentetrazol). Conditions: comparison with known antiepileptics. It counts as in vivo. The method, then: They were tested for their anticonvulsive action in vivo after i.p. administration using the international customary mouse animal models described in Pharmac Weekblad, Sc. Ed. The most commonly used chemoconvulsant is pentetrazol which can be used as a primary screen for anticonvulsant activity when dosages that produce hindlimb tonic extension are administered. […] This test using pentetrazol to induce seizures, used as a primary screen of anticonvulsant activity is referred to in the results below as PEZ. Seizures can also be induced electrically for the identification of anticonvulsant activity. […] A […] (60 Hz) electrical current for 0.2 s is delivered by a corneal electrode to mice. The current is four to five times as large as the threshold current needed to produce the tonic seizure. These specific parameters are used to identify compounds that prevent seizure spread, therapeutic agents for generalized tonic clonic seizures. […] However, when the current is lowered to […], compounds which modify both seizure spread and seizure threshold are identified.

The nature of the next series: in vivo. Conditions: mouse, ip.
Setting [5] is: mouse, i.p., dose 100 mg/kg, read-out: Action % of Animals, MES.
Where [6] appears, read: ip, i.p., read-out: Action % of Animals, PTZ.
The mark [7] stands for this setting: mouse, i.p., read-out: Action % of Animals, MES.

The structures appear in SMILES notation. Read-outs that look alike come from different tables or passages of the source.

Regarding `O=C1NC(=O)C(c2ccccc2)(c2ccccc2)N1` [phenytoin], the “effect on the blocking of clonic seizures” value in the series on clonic seizures is “no effect”.

`O=C1CN(c2ccccc2Cl)C(=O)N1` [Example 1, 1-(2-chlorophenyl)imidazoline-2,4-dione]: the logP in series [1] was 0.49. The responders at 300 mg/kg amounted to 100% in series [2] (mouse, i.p., dose 300 mg/kg, read-out: Action % of Animals, MES) and 0% in series [3] (ip, i.p., dose 300 mg/kg, read-out: Action % of Animals, PTZ).

For `O=C1CN(Cc2c(Cl)cccc2Cl)C(=O)N1` [Example 7, 1-(2,6-dichlorobenzyl)imidazoline-2,4-dione], the logP in series [1] was 1.44. In addition, the responders at 100 mg/kg in series [2] (setting [5]) and in series [3] (setting [6]) was 100% each time.

For the compound `O=C1CN(Cc2ccccc2C(F)(F)F)C(=O)N1` [Example 9], the responders at 30 mg/kg in series [2] (setting [7]) and in series [3] (setting [6]) was 100% throughout.

Consider `O=C1CN(c2ccccc2F)C(=O)N1` [Example 4, 1-(2-fluorophenyl)imidazoline-2,4-dione], for which the responders at 100 mg/kg in series [2] (setting [5]) and in series [3] (setting [6]) was 100% throughout.

As for `CCCC(CCC)C(=O)O` [Valproate, reference compound], the responders at 100 mg/kg came out at 0% in series [2] (Mus musculus, read-out: Action % of Animals, MES) and 0% in series [3] (setting [6]).

Consider `O=C1CN(Cc2ccccc2Cl)C(=O)N1` [Example 6, 1-(2-chlorobenzyl)imidazoline-2,4-dione], for which the logP in series [1] was determined as 1.12. Also, the responders at 30 mg/kg in series [2] (setting [7]) and in series [3] (setting [6]) was 100% in each case.

As to `NC(=O)N1c2ccccc2C=Cc2ccccc21` [Carbamazepine, reference compound], the responders at 100 mg/kg in series [2] (setting [5]) stood at 100%; in series [3] (setting [6]), 0%. The “effect on the blocking of clonic seizures” value in the series on clonic seizures is reported as “no effect”. Further, the “activity in maximum electroshock model or pentetrazol test” value in series [4] is “active either in the maximum electroshock model, or in the pentetrazol test, but not in both”.

As for `O=C1CN(c2c(Cl)cccc2Cl)C(=O)N1` [Example 3, 1-(2,6-dichlorophenyl)imidazoline-2,4-dione], the logP in series [1] stood at 0.69. The responders at 30 mg/kg in series [2] (setting [7]) turned out to be 100%. In addition, in series [3] (setting [6]), the responders at 100 mg/kg came to 100%.

Take `O=C1CN(c2cccc(Cl)c2Cl)C(=O)N1` [Example 2, 1-(2,3-dichlorophenyl)imidazoline-2,4-dione]: in series [1], the logP was 1.16. For the same compound, the responders at 100 mg/kg in series [2] (setting [5]) and in series [3] (setting [6]) was 100% throughout.

As for `CCCC(CCC)C(=O)O` [calcium valproate], in series [4], the “activity in maximum electroshock model or pentetrazol test” value is “active either in the maximum electroshock model, or in the pentetrazol test, but not in both”.

Consider `Cc1cc(Cl)ccc1N1CC(=O)NC1=O` [Example 5, 1-(4-chloro-2-methylphenol)imidazoline-2,4-dione], for which the logP in series [1] amounted to 0.86. Further, the responders at 30 mg/kg in series [2] (setting [7]) and in series [3] (setting [6]) was 100% in each case.

Take `O=C1CN(Cc2c(F)cccc2F)C(=O)N1` [Example 8, 1-(2,6-difluorobenzyl)imidazoline-2,4-dione]: in series [1], the logP stood at 0.63. Besides, the ED50 in series [2] (mouse) is 36 mg/kg; in series [3] (sc), 50 mg/kg. In addition, the responders at 100 mg/kg in series [2] (setting [5]) and in series [3] (setting [6]) was 100% in each case. Moreover, the TD50 in the series “in vivo” came to 123 mg/kg.
